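Results reflect a 48-hour exposure of cells in 96-well plates to compound at five concentrations. At the TGI there is no net growth.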
How the values were obtained:
Experiment in all cases: inhibition of tumour cell growth, NCI panel, 48 h
[1] = test system: COLO 205 colon
[2] = test system: HL-60(TB) leukemia
[3] = test system: M19-MEL melanoma
[4] = test system: MALME-3M melanoma
[5] = test system: SNB-75 CNS
[6] = test system: EKVX NSCLC
[7] = test system: SK-OV-3 ovarian
[8] = test system: RPMI-8226 leukemia
[9] = test system: 786-0 renal
[10] = test system: MOLT-4 leukemia
[11] = test system: A498 renal
[12] = test system: CAKI-1 renal
[13] = test system: SK-MEL-5 melanoma
[14] = test system: IGROV1 ovarian
[15] = test system: UO-31 renal
[16] = test system: HCT-15 colon
[17] = test system: SNB-78 CNS
[18] = test system: HOP-62 NSCLC
[19] = test system: LXFL 529 NSCLC
[20] = test system: SNB-19 CNS
[21] = test system: SK-MEL-28 melanoma
[22] = test system: K-562 leukemia
[23] = test system: M14 melanoma
[24] = test system: TK-10 renal
[25] = test system: SK-MEL-2 melanoma
[26] = test system: OVCAR-4 ovarian
[27] = test system: OVCAR-5 ovarian
[28] = test system: RXF 393 renal
[29] = test system: DMS 114 small cell lung
[30] = test system: DMS 273 small cell lung
[31] = test system: NCI-H522 lung
[32] = test system: A549 NSCLC
[33] = test system: UACC-62 melanoma
[34] = test system: NCI-H23 lung
[35] = test system: UACC-257 melanoma
[36] = test system: KM12 colon
[37] = test system: ACHN renal
[38] = test system: HT29 colon
[39] = test system: U251 CNS
[40] = test system: SF-539 CNS
[41] = test system: SN12C renal
[42] = test system: NCI-H460 lung
[43] = test system: OVCAR-8 ovarian
[44] = test system: HOP-92 NSCLC
[45] = test system: SW-620 colon
[46] = test system: CCRF-CEM leukemia
[47] = test system: HCT-116 colon
[48] = test system: KM20L2 colon
[49] = test system: HCC-2998 colon
[50] = test system: LOX IMVI melanoma
[51] = test system: NCI-H226 lung
[52] = test system: DLD-1 colon
[53] = test system: SF-295 CNS
[54] = test system: OVCAR-3 ovarian
[55] = test system: SR leukemia
[56] = test system: XF 498 CNS
[57] = test system: HOP-18 NSCLC
[58] = test system: SF-268 CNS
[59] = test system: BT-549 breast
[60] = test system: MDA-MB-231 breast
[61] = test system: PC-3 prostate
[62] = test system: HS 578T breast
[63] = test system: T-47D breast
[64] = test system: MDA-N
[65] = test system: NCI/ADR-RES ovarian
[66] = test system: MDA-MB-435
[67] = test system: DU-145 prostate
[68] = test system: MCF7 breast

SMILES: Cc1ccc2c(C3Cc4ccccc4N3C(=O)/C=C\C(=O)O)c(C)[nH]c2c1 (stereo not given)
- TGI [1]: 58.5 µM
- TGI [2]: 43.8 µM
- TGI [3]: > 100 µM
- TGI [4]: > 100 µM
- TGI [5]: > 100 µM
- TGI [6]: > 100 µM
- TGI [7]: > 100 µM
- TGI [8]: 79.7 µM
- TGI [9]: > 100 µM
- TGI [10]: 94.6 µM
- TGI [11]: > 100 µM
- TGI [12]: > 100 µM
- TGI [13]: > 100 µM
- TGI [14]: > 100 µM
- TGI [15]: > 100 µM
- TGI [16]: 72.5 µM
- TGI [17]: 45.3 µM
- TGI [18]: > 100 µM
- TGI [19]: 42.9 µM
- TGI [20]: > 100 µM
- TGI [21]: > 100 µM
- TGI [22]: 73 µM
- TGI [23]: > 100 µM
- TGI [24]: > 100 µM
- TGI [25]: 36 µM
- TGI [26]: > 100 µM
- TGI [27]: > 100 µM
- TGI [28]: 93.8 µM
- TGI [29]: > 100 µM
- TGI [30]: > 100 µM
- TGI [31]: 48.6 µM
- TGI [32]: > 100 µM
- TGI [33]: 97.6 µM
- TGI [34]: > 100 µM
- TGI [35]: > 100 µM
- TGI [36]: > 100 µM
- TGI [37]: > 100 µM
- TGI [38]: > 100 µM
- TGI [39]: > 100 µM
- TGI [40]: > 100 µM
- TGI [41]: > 100 µM
- TGI [42]: > 100 µM
- TGI [43]: > 100 µM
- TGI [44]: 84.1 µM
- TGI [45]: > 100 µM
- TGI [46]: 62.5 µM
- TGI [47]: > 100 µM
- TGI [48]: > 100 µM
- TGI [49]: > 100 µM
- TGI [50]: > 100 µM
- TGI [51]: > 100 µM
- TGI [52]: > 100 µM
- TGI [53]: > 100 µM
- TGI [54]: 66.8 µM
- TGI [55]: 72.9 µM

SMILES: O=c1[nH]cc(COCCCO)c(=O)[nH]1
- TGI [1]: > 100 µM
- TGI [2]: > 100 µM
- TGI [3]: > 100 µM
- TGI [4]: > 100 µM
- TGI [5]: > 100 µM
- TGI [6]: > 100 µM
- TGI [56]: > 100 µM
- TGI [7]: > 100 µM
- TGI [57]: > 100 µM
- TGI [8]: > 100 µM
- TGI [9]: > 100 µM
- TGI [10]: > 100 µM
- TGI [11]: > 100 µM
- TGI [12]: > 100 µM
- TGI [13]: > 100 µM
- TGI [14]: > 100 µM
- TGI [15]: > 100 µM
- TGI [16]: > 100 µM
- TGI [17]: > 100 µM
- TGI [18]: > 100 µM
- TGI [19]: > 100 µM
- TGI [20]: > 100 µM
- TGI [21]: > 100 µM
- TGI [22]: > 100 µM
- TGI [23]: > 100 µM
- TGI [24]: > 100 µM
- TGI [25]: > 100 µM
- TGI [26]: > 100 µM
- TGI [27]: > 100 µM
- TGI [28]: > 100 µM
- TGI [30]: > 100 µM
- TGI [31]: > 100 µM
- TGI [32]: > 100 µM
- TGI [33]: > 100 µM
- TGI [34]: > 100 µM
- TGI [35]: > 100 µM
- TGI [36]: > 100 µM
- TGI [37]: > 100 µM
- TGI [38]: > 100 µM
- TGI [39]: > 100 µM
- TGI [40]: > 100 µM
- TGI [41]: > 100 µM
- TGI [42]: > 100 µM
- TGI [58]: > 100 µM
- TGI [43]: > 100 µM
- TGI [44]: > 100 µM
- TGI [45]: > 100 µM
- TGI [46]: > 100 µM
- TGI [47]: > 100 µM
- TGI [48]: > 100 µM
- TGI [50]: > 100 µM
- TGI [51]: > 100 µM
- TGI [52]: > 100 µM
- TGI [53]: > 100 µM
- TGI [54]: > 100 µM
- TGI [55]: > 100 µM

SMILES: CC(C)(C)c1cc2c(OC/C=C/c3ccccc3)c(c1)Cc1cc(C(C#N)(OC/C=C/c3ccccc3)OC/C=C/c3ccccc3)cc(c1OC/C=C\c1ccccc1)Cc1cc(C(C)(C)C)cc(c1OC/C=C/c1ccccc1)Cc1cc(C(C#N)(OC/C=C\c3ccccc3)OC/C=C/c3ccccc3)cc(c1OC/C=C\c1ccccc1)C2 (stereo not given)
- TGI [1]: > 100 µM
- TGI [2]: > 100 µM
- TGI [4]: > 100 µM
- TGI [5]: > 100 µM
- TGI [6]: > 100 µM
- TGI [7]: > 100 µM
- TGI [8]: > 100 µM
- TGI [9]: > 100 µM
- TGI [10]: > 100 µM
- TGI [11]: > 100 µM
- TGI [12]: > 100 µM
- TGI [59]: > 100 µM
- TGI [13]: > 100 µM
- TGI [14]: > 100 µM
- TGI [60]: > 100 µM
- TGI [15]: > 100 µM
- TGI [16]: > 100 µM
- TGI [18]: > 100 µM
- TGI [20]: > 100 µM
- TGI [61]: > 100 µM
- TGI [62]: > 100 µM
- TGI [21]: > 100 µM
- TGI [22]: > 100 µM
- TGI [23]: > 100 µM
- TGI [63]: > 100 µM
- TGI [24]: 54.3 µM
- TGI [25]: > 100 µM
- TGI [26]: > 100 µM
- TGI [27]: > 100 µM
- TGI [28]: > 100 µM
- TGI [64]: > 100 µM
- TGI [65]: > 100 µM
- TGI [31]: > 100 µM
- TGI [32]: > 100 µM
- TGI [33]: > 100 µM
- TGI [34]: > 100 µM
- TGI [35]: > 100 µM
- TGI [36]: > 100 µM
- TGI [37]: > 100 µM
- TGI [38]: > 100 µM
- TGI [39]: > 100 µM
- TGI [40]: > 100 µM
- TGI [66]: > 100 µM
- TGI [41]: > 100 µM
- TGI [42]: > 100 µM
- TGI [58]: > 100 µM
- TGI [43]: > 100 µM
- TGI [44]: > 100 µM
- TGI [45]: > 100 µM
- TGI [46]: > 100 µM
- TGI [47]: > 100 µM
- TGI [67]: > 100 µM
- TGI [49]: > 100 µM
- TGI [50]: > 100 µM
- TGI [68]: > 100 µM
- TGI [51]: > 100 µM
- TGI [53]: > 100 µM
- TGI [54]: > 100 µM
- TGI [55]: 49.3 µM

Reference: PubChem BioAssay (NCI)
